The source of these data is patent publication US20230132386A9, “GRANZYME B DIRECTED IMAGING AND THERAPY” (CytoSite Biopharma Inc., priority 2019, published 2023).

Data set [1] is described as follows: metabolic stability assay using liver microsomes. In kind it is in vitro ADME. The settings on record: human liver microsomes 0.4 mg/ml, 1 μM, NRS, 37° C. How it is done:
In addition, compounds of Formula I described above are also tested in the metabolic stability assay using liver microsomes, as provided below.
Buffer pH7.4: Prepare 1 (M) KH2PO4 and 1 (M) K2HPO4. Titrate 1(M) K2HPO4 with 1 (M) KH2PO4 to obtain pH 7.40. Dilute this buffer 10 fold in Water (30 ml buffer+270 ml of water) to obtain 100 mM phosphate buffer. Adjust pH to 7.40±0.02 using 5(N) HCl or 5(N) NaOH.
NADPH Regeneration System (NRS): Prepare a solution containing 13 mM NADP, 33 mM Glucose-6-phosphate, 33 mM MgCl2 and 4 U/ml Glucose-6-phosphate dehydrogenase in buffer.
Liver Microsome (LM) suspension: Thaw LM vial on ice, then mix 1.0 ml LM (20 mg/ml) with 19 ml buffer [final LM Conc: 1 mg/ml]
LM+NRS suspension: Mix 5.0 ml NRS with 20 ml LM suspension [final LM Conc: 0.8 mg/ml]
System suitability standard: a synthesized compound having Mol wt 686.2 used as System suitability standard. Dissolve this compound in ice-cold acetonitrile to obtain concentration of 0.1 μg/ml and store at 4° C.
Sub stock (100 μM): 4 μl of 10 mM Compound Stock+398 μl Acetonitrile Working plate (2 μM): 10 μl of 100 μM Sub stock+490 μl buffer
Incubate all plastic materials including tips at 37° C. overnight.
Incubate LM suspension and NRS at 37° C. for 15 min before use.
Add 40 μl buffer to the wells of blank plate.
Add 40 μl compound (from working plate) to 0, 5, 10, 20, 30 and 60 min plates.
Initiate reaction by adding 40 μl of LM+NRS suspension in each plate.
Terminate reaction by adding 240 μl ice-cold acetonitrile containing system suitability standard at designated time points. For T=0 add 240 μl ice-cold acetonitrile containing system suitability standard before LM+NRS addition.
Centrifuge (3500 rpm, 20 min and 15° C.) the plates.
Mix 110 μl supernatant with 110 μl water and quantitate amount of Compound in the solution using LC-MS/MS.
% Remaining at t=x min=100×([LC-MS/MS peak area of analyte]t=x min)/([LC-MS/MS peak area of analyte]t=0min)
Human LM: Corning, Cat #25117
Certain compounds of this disclosure were tested in the microsomal stability assay provided above.

The target of data set [2] is T1, Granzyme B (human lymphocytes) (Homo sapiens, UniProt P10144).
T1 construct: Supplied Granzyme B (human lymphocytes) enzyme is reconstituted to 1 mg/ml (about 31.25 μM); purchased Enzo Lifesciences ALX-200-602-0010; host or cells: human lymphocytes
T1 sequence (P10144 21-247): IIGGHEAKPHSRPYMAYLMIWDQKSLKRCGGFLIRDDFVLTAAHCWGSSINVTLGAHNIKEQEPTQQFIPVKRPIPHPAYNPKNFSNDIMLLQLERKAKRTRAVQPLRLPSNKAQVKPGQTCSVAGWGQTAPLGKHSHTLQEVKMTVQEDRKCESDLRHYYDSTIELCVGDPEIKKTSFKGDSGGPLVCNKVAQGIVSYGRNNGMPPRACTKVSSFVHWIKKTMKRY
Briefly: human Granzyme B biochemical assay. The note with it: Granzyme B (human lymphocytes) 5 nM, substrate Ac-IETD-AFC 200 μM, 30 mins incubation, 22° C. The source says: The compounds of Formula I described above can be tested using the human Granzyme B biochemical assay provided below.
• 1. Granzyme B (human lymphocytes) Enzyme: Enzo Lifesciences, Cat #ALX-200-602-0010 • 2. Substrate (Ac-IETD-AFC): Enzo Lifesciences, Cat #ALX-260-110-M010 • 3. Standard inhibitor (Compound 20-Isomer3): Synthesized internally in TCG • 4. Dimethyl sulfoxide (DMSO): Sigma-Aldrich, Cat #41639 • 5. HEPES: Gibco, Cat #15630-080 • 6. Calcium chloride: Sigma-Aldrich, Cat #C-5080 • 7. Distilled water: Gibco, Cat #15230-162 • 8. Bovine serum albumin (BSA): Sigma-Aldrich, Cat #A3059 • 9. Black, clear bottom PDL plate (384 wells): Greiner bio-one, Cat #781946 • 10. Polypropylene plate (384 wells): Corning, Cat #3657
• 1. DMSO is added to the respective compound vial to make 10 mM Compound stock solution, which is stored at −20° C. • 2. 10 mM Compound stock solution is thawed and 1 mM DMSO stock solution is prepared by adding 45 μl of DMSO to 5 μl of 10 mM compound stock solution. • 3. 1 mM DMSO stock solution is serially diluted (3.16 fold) by adding 10 μl of 1 mM DMSO stock to 21.6 μl of DMSO and mixed well. 10 μl of the resulting solution is then added to 21.6 μl of DMSO and mixed well. This process is continued to created 11 dilution points for the assay standard inhibitor and 8 dilution points for test compounds in 384 well polypropylene plate. • 4. 2 μl of each dilution are dispensed in assay ready plate. 5. Each well is then diluted 25 fold by adding 48 μl of assay buffer to 2 μl of compound in assay ready plate to make Compound working stock.
• 1. Supplied Granzyme B (human lymphocytes) enzyme is reconstituted to 1 mg/ml (about 31.25 μM) and 1 μl aliquots are kept in −80° C. • 2. 1 μl aliquot is diluted to 625 nM by adding 49 μl of assay buffer containing 0.1% BSA and gently mixed. • 3. 10 nM enzyme working stock is prepared by adding assay buffer containing 0.1% BSA.
• 1. Supplied substrate (Ac-IETD-AFC) is reconstituted by adding DMSO to make 10 mM stock, aliquoted and stored in −80° C. • 2. 4 mM substrate mid stock is prepared by adding DMSO. • 3. Substrate working stock i.e. 800 μM is prepared by adding assay buffer.
• 1. 10 μl of serially diluted Compound working stock (start dose 40 μM) is added from assay ready plate to assay plate according to the plate map. • 2. Positive control (40 μM of standard inhibitor) and negative control (4% DMSO buffer) are added to the respective wells. • 3. 20 μl of Enzyme working stock is added to assay plate and gently mixed. • 4. The plate is incubated at 22° C. for 30 mins and spun at 130 g for 1 minute. • 5. After incubation, 10 μl of Substrate working stock is added to respective wells and mixed (Assay plate is maintained in dark after substrate addition). • 6. The plate is incubated at 22° C. for 60 mins and spun at 130 g for 1 minute. • 7. Fluorescence read (RFU) (Ex: 400 nm/Em: 505 nm) is taken after 60 mins in EnVision Multimode plate reader.
• 1. The RFU read is analyzed to calculate percent inhibition by normalizing with positive and negative controls taken as 100% and 0% effect respectively in Microsoft excel. • 2. Graph is generated by putting the analyzed data in GraphPad prism 5.0 software to get IC50 value for each compound.

As for `CC[C@H](C)[C@@H](C(=O)N[C@H]1CCc2cccc3c2N(C1=O)[C@H](C(=O)NCc1c[nH]nn1)C3)N(CCOCCF)C(=O)Cc1nc2ccccc2o1` (single isomer, unassigned) [Compound C178], the “Human Liver Microsomes % remaining @30 min” value in data set [1] came to 0.8%. The compound also showed a 50% inhibitory concentration (IC50) in data set [2] of 301 to 1000 nM.
In the case of `CC[C@H](C)[C@@H](C(=O)N[C@H]1CCc2cccc3c2N(C1=O)[C@H](C(=O)NCc1c[nH]nn1)C3)N(CCC(=O)O)C(=O)COCCF` (single isomer, unassigned) [Compound C230], in data set [1], the “Human Liver Microsomes % remaining @30 min” value is listed as 98.2%. Also, the IC50 in data set [2] lay in the range of 301 to 1000 nM.
`CC[C@H](C)[C@@H](C(=O)N[C@H]1CCc2cccc3c2N(C1=O)[C@H](C(=O)NCc1c[nH]nn1)C3)N(C)C(=O)CC(=O)O` (single isomer, unassigned) [Compound C190] gave an IC50 in data set [2] of 301 to 1000 nM.
`CC[C@H](C)[C@@H](C(=O)N[C@H]1CCc2cccc3c2N(C1=O)[C@H](C(=O)NCc1c[nH]nn1)C3)N(C(=O)COCCF)C(C)C` (single isomer, unassigned) [Compound C177]: the 50% inhibitory concentration (IC50) in data set [2] was 1000 to 5000 nM.
On to `CC[C@H](C)[C@@H](C(=O)N[C@H]1CCc2cccc3c2N(C1=O)[C@H](C(=O)NCc1c[nH]nn1)C3)N(C)C(=O)CC(N)=O` (single isomer, unassigned) [Compound C191], for which the “Human Liver Microsomes % remaining @30 min” value in data set [1] is 83.6%. The half-maximal inhibitory concentration (IC50) in data set [2] lay within 301 to 1000 nM.
In data set [2], `CC[C@H](C)[C@@H](C(=O)N[C@H]1CCc2cccc3c2N(C1=O)[C@H](C(=O)NCc1c[nH]nn1)C3)N(C)C(=O)CC(=O)N(C)C` (single isomer, unassigned) [Compound C193] came in with an IC50 of 301 to 1000 nM.
In the case of `CC[C@H](C)[C@@H](C(=O)N[C@H]1CCc2cccc3c2N(C1=O)[C@H](C(=O)NCc1c[nH]nn1)C3)N(C)C(=O)COCCF` (single isomer, unassigned) [Compound C155], the “Human Liver Microsomes % remaining @30 min” value in data set [1] is 66.3%. Moreover, in data set [2], the IC50 is 301 to 1000 nM.
In the same order, the values of “N-Methyl-N-((1S,2S)-2-methyl-1- {(1S,8S)-9-oxo-1-[(1H-[1,2,3]triazol- 4-y lmethyl)-carbamoyl]-1,2,8,9- tetrahydro-7H-6-oxa-9a-aza- benzo[cd]azu1en-8-ylcarbamoyl}- butyl)-malonamic acid [Compound C214]” are 100.0% and 301 to 1000 nM.
`CC[C@H](C)[C@@H](C(=O)N[C@H]1CCc2cccc3c2N(C1=O)[C@H](C(=O)NCc1c[nH]nn1)C3)N(CCOCCF)C(C)=O` (single isomer, unassigned) [Compound C203] returned a half-inhibitory concentration (IC50) in data set [2] of 301 to 1000 nM.
The compound `CC[C@H](C)[C@@H](C(=O)N[C@H]1CCc2cccc3c2N(C1=O)[C@H](C(=O)NCc1c[nH]nn1)C3)N(C)C(=O)Cc1c[nH]cn1` (single isomer, unassigned) [Compound C197] yielded an IC50 in data set [2] of 301 to 1000 nM.
`CC[C@H](C)[C@@H](C(=O)N[C@H]1CCc2cccc3c2N(C1=O)[C@H](C(=O)NCc1c[nH]nn1)C3)N(C)C(=O)Cc1csc2ccccc12` (single isomer, unassigned) [Compound C152]: the IC50 in data set [2] lay in the range of 301 to 1000 nM.
`CC[C@H](C)[C@@H](C(=O)N[C@H]1CCc2cccc3c2N(C1=O)[C@H](C(=O)NCc1c[nH]nn1)C3)N(C)C(=O)CC(=O)OC` (single isomer, unassigned) [Compound C194]: the half-maximal inhibitory concentration (IC50) in data set [2] lay in the range of 301 to 1000 nM.
In data set [2], `CC[C@H](C)[C@@H](C(=O)N[C@H]1CCc2cccc3c2N(C1=O)[C@H](C(=O)NCc1c[nH]nn1)C3)N(CC)C(=O)COCCF` (single isomer, unassigned) [Compound C176] registered a 50% inhibitory concentration (IC50) of 301 to 1000 nM.
Consider `CC[C@H](C)[C@@H](C(=O)N[C@H]1CCc2cccc3c2N(C1=O)[C@H](C(=O)NCc1c[nH]nn1)C3)N(C)C(=O)Cn1ccnc1` (single isomer, unassigned) [Compound C198], for which the “Human Liver Microsomes % remaining @30 min” value in data set [1] came out at 55.4%. Moreover, in data set [2], the IC50 was in the range of 301 to 1000 nM.
In data set [2], `CC[C@H](C)[C@@H](C(=O)N[C@H]1CCc2cccc3c2N(C1=O)[C@H](C(=O)NCc1c[nH]nn1)C3)N(CCOCCCF)C(=O)Cc1nc2ccccc2o1` (single isomer, unassigned) [Compound C179] returned an IC50 of 301 to 1000 nM.
In the case of `CC[C@H](C)[C@@H](C(=O)N[C@H]1CCc2cccc3c2N(C1=O)[C@H](C(=O)NCc1c[nH]nn1)C3)N(C)C(=O)CC(=O)NC` (single isomer, unassigned) [Compound C192], the “Human Liver Microsomes % remaining @30 min” value in data set [1] was 72.8%. Also, the IC50 in data set [2] lay in the range of 301 to 1000 nM.
In the case of `CC[C@H](C)[C@@H](C(=O)N[C@H]1CCc2cccc3c2N(C1=O)[C@H](C(=O)NCc1c[nH]nn1)C3)N(CCc1csc2ccccc12)C(C)=O` (single isomer, unassigned) [Compound C184], the half-inhibitory concentration (IC50) in data set [2] was more than 5000 nM.

The IC50 is the point on the concentration scale where inhibition reaches its midpoint. Read a high IC50 as weaker potency.
